Assay [1] concerns release of growth hormone. Kind of assay: release of growth hormone in pentobarbital-stimulated rats. The assay is classed as in vivo, Spraque-Dawley rats. The conditions noted are these: 50 μg./rat subcutaneously, sodium pentobarbital stimulated, somatostatin comparator run in each set. The protocol:
D-Phe^11 -somatostatin, L-Cha^11 -somatostatin, and L-Leu^11 -somatostatin also were tested for their activity with respect to the release of growth hormone. The procedure which was employed is carried out using mature male Spraque-Dawley rats (Laboratory Supply Company, Indianapolis, Indiana). The test is a modification of the method of P. Brazeau, W. Vale, and R. Guilleman, Endocrinology, 94 184 (1974). In each assay, a set comprising three groups of eight rats each was employed. First, sodium pentobarbital was administered to all of the rats of the particular set to stimulate growth hormone secretion. In each set, one group served as control group and received only saline. A second group received somatostatin at 50 μg./rat, subcutaneously. The third group received test compound at 50 μg./rat, subcutaneously. The degree of inhibition of serum growth hormone concentration then was determined with respect to the control group, and the relative activities of test compound and somatostatin itself were compared.

Assay [2] relates to glucagon secretion. The experiment in a line: in vivo inhibition of glucagon secretion upon stimulation with L-alanine. As to conditions: dogs, intravenous infusion; for effect on the increase in serum glucagon concentration produced by infusion of L-alanine: D-Phe11 0.211, L-Cha11 0.235, L-Leu11 0.195 μg/kg/min., L-alanine 1 mmol/kg; for effect on basal serum glucagon concentration: L-Cha11 0.235, L-Leu11 0.195 μg/kg/min. On the set-up: species or system mongrel dogs. How it is done:
(§1) The tetradecapeptides were tested for their in vivo activity in inhibiting glucagon and insulin secretion upon stimulation with L-alanine. Normal mongrel dogs of either sex were fasted overnight. Control blood samples were obtained, and then an intravenous infusion of saline, somatostatin, or test compound was started. After 30 minutes, L-alanine additionally was administered intravenously for a period of 15 minutes. The infusion of saline, somatostatin, or test compound was continued for 15 minutes after completion of the alanine infusion. The total dose of somatostatin or test compound which was infused is 200-500 μg/dog (about 0.20-0.30 μg/kg./minute), and the total dose of L-alanine infused was 1 mmol/kg. The infusion of L-alanine produced an abrupt increase in the serum concentration of glucagon and insulin. This returned to control concentration when the alanine infusion was discontinued.

The next assay concerns insulin secretion. The experiment in a line: in vivo inhibition of insulin secretion upon stimulation with L-alanine. On the set-up: species or system mongrel dogs. As to conditions: for effect on the increase in serum insulin concentration produced by infusion of L-alanine / effect on basal serum insulin concentration: dogs, intravenous infusion; for effect on the increase in serum insulin concentration produced by infusion of L-alanine: D-Phe11 0.211, L-Cha11 0.235, L-Leu11 0.195 μg/kg/min., L-alanine 1 mmol/kg; for effect on basal serum insulin concentration: L-Cha11 0.235, L-Leu11 0.195 μg/kg/min., somatostatin about 0.20-0.30 μg/kg./minute. How it is done:
as §1

A further assay relates to gastric HCl secretion. Kind of assay: in vivo inhibition of gastric acid secretion in dogs with chronic fistula and Heidenhain pouch. As to conditions: for effect equivalent to that dose of somatostatin: extrapolated against the dose-response curve of somatostatin, test compound 3 μg/kg-hr.; for activity relative to that of somatostatin: gastric acid secretion in dogs, relative potency expressed as percent activity. The protocol:
D-Phe^11 -somatostatin and L-Cha^11 -somatostatin also were tested in dogs for their in vivo inhibition of gastric acid secretion. In six dogs with chronic fistula and Heidenhain pouch, gastric HCl secretion was induced by infusion of the C-terminal tetrapeptide of gastrin at 0.5 μg/kg-hr. One dog served as control, receiving only the tetrapeptide. Another dog received the tetrapeptide and somatostatin while the test compound was administered to the remaining dogs in place of somatostatin. After one hour of steady state secretion of HCl, somatostatin or the test compound was infused at 3 μg/kg-hr. for one hour. Collection of gastric acid samples was continued for an additional 1.5 hours at 15 minute intervals. The samples were titrated to pH 7 with an automatic titrator. The maximal inhibitory effect of the test compounds was extrapolated against the dose-response curve of somatostatin, and the relative potency of the analogs to that of somatostatin is expressed as percent activity. […] This effect is equivalent to that of 0.086 μg/kg-hr. of somatostatin. Its activity relative to that of somatostatin thus is 2.87%. […] This effect is equivalent to that of 0.0825 μg/kg-hr. of somatostatin. Its activity relative to that of somatostatin therefore is 2.7%.

Assay [3] relates to glucagon secretion. Kind of assay: in vivo inhibition of glucagon secretion upon stimulation with insulin. On the set-up: species or system mongrel dogs. As to conditions: dogs, intravenous infusion for two hours; D-Phe11 0.128, L-Cha11 0.130, L-Leu11 0.129 μg/kg/min.; insulin 0.3 units/kg. How it is done:
The tetradecapeptides also were evaluated for in vivo activity in inhibiting glucagon secretion upon stimulation with insulin. Normal mongrel dogs of either sex were fasted overnight. After control blood samples had been obtained, an intravenous infusion of saline, somatostatin, or the test compound was commenced. After 15 minutes, insulin, 0.3 units/kg., was injected intravenously. The infusion of saline, somatostatin, or the test compound was continued for two hours, and blood samples were obtained at various intervals throughout the test. The total dose of the somatostatin or test compound ranged from 120-260 μg./dog (0.07-0.13 μg/kg/min.). Administration of insulin produced a reduction in the blood glucose concentration and an increase in serum glucagon concentration.

Positions of bridges follow the written chain, without caps; N, C: chain ends. Non-standard residues stand in square brackets, D forms with d. Residues, ends and D or L forms follow the SMILES beside them. Cha = N[C@@H](CC1CCCCC1)C(=O)O

Consider `C[C@H](N)C(=O)NCC(=O)N[C@H]1CSSC[C@@H](C(=O)O)NC(=O)[C@H](CO)NC(=O)[C@H]([C@@H](C)O)NC(=O)[C@@H](Cc2ccccc2)NC(=O)[C@H]([C@@H](C)O)NC(=O)[C@H](CCCCN)NC(=O)[C@H](Cc2c[nH]c3ccccc23)NC(=O)[C@H](Cc2ccccc2)NC(=O)[C@H](Cc2ccccc2)NC(=O)[C@H](CC(N)=O)NC(=O)[C@H](CCCCN)NC1=O` [D-Phe^11 -somatostatin], for which the “inhibition of the increase in serum growth hormone concentration over control” value (“inhibition of the increase” for short) in assay [1] came out at 70%. Further, the “effect on the increase in serum glucagon concentration produced by infusion of L-alanine” value in the assay with glucagon secretion [2] is given as “did not affect the increase in serum glucagon concentration”. Moreover, in the assay on insulin secretion, the “effect on the increase in serum insulin concentration produced by infusion of L-alanine” value is “did not affect the increase in serum glucagon concentration and serum insulin concentration”. In the assay with gastric HCl secretion, the “effect equivalent to that dose of somatostatin” value is listed as 0.086 μg/kg-hr and the “activity relative to that of somatostatin” value was determined as 2.87%. For the same molecule, the “effect on the increase in serum glucagon concentration produced by insulin administration” value in the assay on glucagon secretion [3] is “none of these compounds inhibited the increase in serum glucagon concentration”.
In the case of `C[C@H](N)C(=O)NCC(=O)N[C@H]1CSSC[C@@H](C(=O)O)NC(=O)[C@H](CO)NC(=O)[C@H]([C@@H](C)O)NC(=O)[C@H](CC2CCCCC2)NC(=O)[C@H]([C@@H](C)O)NC(=O)[C@H](CCCCN)NC(=O)[C@H](Cc2c[nH]c3ccccc23)NC(=O)[C@H](Cc2ccccc2)NC(=O)[C@H](Cc2ccccc2)NC(=O)[C@H](CC(N)=O)NC(=O)[C@H](CCCCN)NC1=O` [L-Cha^11 -somatostatin] (H-AGCKNFFWKT[Cha]TSC-OH; disulfide 3-14), the “inhibition of the increase” value in assay [1] worked out at 33%. Moreover, in the assay with glucagon secretion [2], the “effect on the increase in serum glucagon concentration produced by infusion of L-alanine” value is on record as “did not inhibit the increase in serum concentration of either hormone”; the “effect on basal serum glucagon concentration” value is “caused a decrease in the basal serum concentration of both insulin and glucagon”. In the assay on insulin secretion, the “effect on the increase in serum insulin concentration produced by infusion of L-alanine” value is reported as “did not inhibit the increase in serum concentration of either hormone”; the “effect on basal serum insulin concentration” value is “caused a decrease in the basal serum concentration of both insulin and glucagon”. In the assay on gastric HCl secretion, the “effect equivalent to that dose of somatostatin” value is listed as 0.0825 μg/kg-hr and the “activity relative to that of somatostatin” value was found to be 2.7%. For the same molecule, the “effect on the increase in serum glucagon concentration produced by insulin administration” value in the assay with glucagon secretion [3] is “none of these compounds inhibited the increase in serum glucagon concentration”.
On to `CC(C)C[C@@H]1NC(=O)[C@H]([C@@H](C)O)NC(=O)[C@H](CCCCN)NC(=O)[C@H](Cc2c[nH]c3ccccc23)NC(=O)[C@H](Cc2ccccc2)NC(=O)[C@H](Cc2ccccc2)NC(=O)[C@H](CC(N)=O)NC(=O)[C@H](CCCCN)NC(=O)[C@@H](NC(=O)CNC(=O)[C@H](C)N)CSSC[C@@H](C(=O)O)NC(=O)[C@H](CO)NC(=O)[C@H]([C@@H](C)O)NC1=O` [L-Leu^11 -somatostatin] (H-AGCKNFFWKTLTSC-OH; disulfide 3-14), for which, in assay [1], the “inhibition of the increase” value came to 22%. Further, in the assay with glucagon secretion [2], the “effect on the increase in serum glucagon concentration produced by infusion of L-alanine” value was “had no effect on the increase in glucagon concentration produced by L-alanine” and the “effect on basal serum glucagon concentration” value is on record as “had no affect on the basal serum concentration of either insulin or glucagon”. Moreover, in the assay on insulin secretion, the “effect on the increase in serum insulin concentration produced by infusion of L-alanine” value is recorded as “caused only a partial inhibition of the increase in insulin secretion” and the “effect on basal serum insulin concentration” value is recorded as “had no affect on the basal serum concentration of either insulin or glucagon”. Further, in the assay on insulin secretion (general statement), the “inhibitory effect upon the pancreatic secretion of insulin” value is “exhibits an inhibitory effect upon the pancreatic secretion of insulin”. For the same molecule, the “effect on the increase in serum glucagon concentration produced by insulin administration” value with glucagon secretion [3] is listed as “none of these compounds inhibited the increase in serum glucagon concentration”.

Source of the values: US4061607A, “Somatostatin analogs and intermediates thereto” (Eli Lilly and Company, priority 1976, dated 1977).
